Test results from patent publication US8921424B2, “Histone deacetylase inhibitors, process for preparation and uses thereof” (Zhejiang Hisun Pharmaceutical Co. Ltd., priority 2007, dated 2014).
Read-outs that look alike come from different tables or passages of the source.

Assays:
HDACs = assay: In vitro HDACi assay (BIOMOL fluorescent-based HDAC activity assay); assay type: biochemical
Procedure: (§1) In Vitro HDACi Assay for Determination of IC50 Values
(§2) The assay has been carried out in white 96 well formats according to the BIOMOL's method. […] The reaction mixture was incubated at room temperature for 2 hours. Flur de lys Developer was added and the reaction was incubated for 10 min. Briefly, deacetylation of the substrate sensitizes to the developer, which then generates a fluorophore. The fluorophore is excited with 360 nm light and the emitted light (460 nm) is detected on a fluorometric plate reader (Molecular Device Ultra Microplate detection system, MD Group Ltd).
(§3) The analytical software, Prism 4.0 (GraphPad Software Inc) has been used to generate IC50 from a series of data.

HDAC6 = HDAC6 (Homo sapiens (Human), UniProt Q9UBN7); assay: In vitro HDACi assay, HDAC6; assay type: biochemical; settings: Table 3; read-out: IC50 (nM) HDAC6
Procedure: as §1, §2, §3

MDAMB435 = assay: Cell-based proliferation assay (SRB), MDAMB435; settings: Homo sapiens
Procedure: (§4) Cell-Based Proliferation Assay for Determination of GI50 Values
(§5) A rapid multiwell plate assay using Sulforhodamine B (SRB) protein stain was adopted to evaluate the growth inhibitory effects of the compounds of the present invention. The screening panel of cancer cell lines includes Colo205 and HCT116 colon cancer cells, MDA-MB231 and MDA-MB435 chest cancer cells, A549 lung cancer cells, and Chinese hamster ovary cell line CHO, which were obtained from ATCC.
(§6) The cell line Colo205 is grown in RPMI 1640 medium containing 2 mM L-glutamine, 5% fetal bovine serum, and 1.0 mM sodium pyruvic acid. Cell lines A549 and MDA-MB231 are grown in RPMI 1640 medium containing 2 mM L-glutamine and 5% fetal bovine serum. The cell line MDA-MB435 is grown in DMEM medium containing 2 mM L-glutamine and 5% fetal bovine serum. The cell lines HCT 116 is grown in IMEM medium containing 2 mM L-glutamine and 5% fetal bovine serum. The CHO cell line, used as a normal control on toxicity, is grown in a special medium for cell line. For a typical screening experiment, A549 and Colo205 cells are inoculated into 96-well microtiter plates, with 100 μL per well, and 2000 and 5000 cells per well respectively for either cell line. MDA-MB435, HCT116, MDA-MB231 and CHO cells are also inoculated into 96-well microtiter plates, with 6000 cells per well. After cell inoculation, the microtiter plates are incubated at 37° C., 5% CO2, and 100% relative humidity for 24 hr in order to make cells adhere to well wall.
(§7) After 24 h incubation or time zero for drug addition, with each cell line 50 μl of cold 50% (w/v) TCA is added to wells used for control to fix cells in situ. Also at time zero, cells in other wells are treated with 100 μl of compound of different concentrations for 24 hr, 48 hr, and 72 hr respectively, with varying final compound concentration (0.1 μM, 1 μM, 5 μM 10 μM). For each treatment duration at each compound concentration, there are triplicate wells, as well as an array of control wells including a blank control well (cell culture medium only, no cells), a no-compound control well (adding same volume of cell culture medium but no compound), a positive control well (treated with Suberoylanilide hydroxamic acid (SAHA)), and normal cell well control (CHO cells). Following the addition of compounds, cell plates are incubated for 24 h, 48 h or 72 h per treatment group at 37° C., 5% CO2, and 100% relative humidity. The Treatment is then terminated by addition of cold TCA and incubation of 1 hr at 4° C. The supernatant is discarded, and all wells are washed five times with de-ioned water and air dried. Then each well is added with 100 μl sulforhodamine B (SRB) solution (0.4% (w/v) made in 1% acetic acid) and cell plates are incubated for 20-30 minutes at room temperature. After staining, unbound dye is removed by washing five times with 1% acetic acid and the plates are air dried. Bound stain is subsequently solubilized with 10 mM (200 μL) Tris base with the help of 5 min platform vibration or pipetting up and down, and the absorbance is read on an automated plate reader (M5 detection system, MD Group Ltd.) at a wavelength of 565 nm (calibrated zero reading of blank control at wavelength of 690 nm). The analytical software, XL-fit has been used to generate GI50 from a series of data thus obtained.

HL-60 = assay: Cell-based proliferation assay (SRB), HL-60; settings: Homo sapiens
Colo205 = assay: Cell-based proliferation assay (SRB), Colo205; settings: Homo sapiens
Procedure: as §4, §5, §6, §7

HCT116 = assay: Cell-based proliferation assay (SRB), HCT116; settings: Homo sapiens
Procedure: as §4, §5, §6, §7

SKOV-3 = assay: Cell-based proliferation assay (SRB), SKOV-3; settings: Homo sapiens
Procedure: as §4, §5, §6, §7

BXPC-3 = assay: Cell-based proliferation assay (SRB), BXPC-3; settings: Homo sapiens
MDAMB231 = assay: Cell-based proliferation assay (SRB), MDAMB231; settings: Homo sapiens, MDA-MB-231; Table 4
Procedure: as §4, §5, §6, §7

[1] = Microsomal stability and clearance; assay type: in vitro ADME, human, mouse; settings: microsomal stability; Table 4
Procedure: Measure of Microsomal Stability and Clearance with Compounds of this Invention
Verapamil (positive control) and compound solution, both at 10 mM, are diluted 200 fold. There are six reaction time points in the experiment (0 min, 5 min, 15 min, 30 min, 45 min, and 60 min), and triplicate samples are used for each data point. There are controls for time zero and negative drug effect (negative control containing no incubation buffer or enzyme). For each compound or Verapamil sample, there are also samples treated with compound or Verapamil at concentrations of no positive effect (at 5 μM and 2.5 μM, respectively). Diluted positive control (Verapamil) and compound solution are mixed with pre-heated (37° C.) incubation buffer (100 mM potassium phosphate buffer, NADPH regeneration system solution B, NAPDH regeneration system solution A, HLM/MLM in Milli-Q ultrapure water), and incubated at 37° C. for 10 min. 100 μL of stop solution mixture is (containing 80% acetonitrile, and 20% DMSO, both of HPLC grade) is dispensed into wells of separate sampling plates into each well. At each reaction time point (0 min, 5 min, 15 min, 30 min, 45 min, and 60 min) 50 μL of reaction solution is taken from wells in the incubation plate and transferred to its corresponding well in the sampling plate, and mixed by pipetting up and down with stop solution already added there. The sampling plates are then covered, placed on ice, and centrifuged at 2,000 rpm at 4° C. for 15 min. 100 μL supernatant is then taken from each well to LC/MS analysis (or stored at 4° C. in refrigerator until analysis).
Data analysis: % remaining of compound is calculated by area of each time point with respect to time 0% remaining against time (min) curve is plotted using the first-phase exponential decay equation y=y0e(−kT) on the Prism 4.0. Results are shown in the format of TOP, K, t1/2 (min), R2 value and % remaining against time curve.

[2] = Table 3, read-out: IC50 (nM) HDACs
[3] = Table 4, read-out: HDAC enzyme inhibition activity IC50

Chain of HDAC6 (Q9UBN7 whole entry, species assumed): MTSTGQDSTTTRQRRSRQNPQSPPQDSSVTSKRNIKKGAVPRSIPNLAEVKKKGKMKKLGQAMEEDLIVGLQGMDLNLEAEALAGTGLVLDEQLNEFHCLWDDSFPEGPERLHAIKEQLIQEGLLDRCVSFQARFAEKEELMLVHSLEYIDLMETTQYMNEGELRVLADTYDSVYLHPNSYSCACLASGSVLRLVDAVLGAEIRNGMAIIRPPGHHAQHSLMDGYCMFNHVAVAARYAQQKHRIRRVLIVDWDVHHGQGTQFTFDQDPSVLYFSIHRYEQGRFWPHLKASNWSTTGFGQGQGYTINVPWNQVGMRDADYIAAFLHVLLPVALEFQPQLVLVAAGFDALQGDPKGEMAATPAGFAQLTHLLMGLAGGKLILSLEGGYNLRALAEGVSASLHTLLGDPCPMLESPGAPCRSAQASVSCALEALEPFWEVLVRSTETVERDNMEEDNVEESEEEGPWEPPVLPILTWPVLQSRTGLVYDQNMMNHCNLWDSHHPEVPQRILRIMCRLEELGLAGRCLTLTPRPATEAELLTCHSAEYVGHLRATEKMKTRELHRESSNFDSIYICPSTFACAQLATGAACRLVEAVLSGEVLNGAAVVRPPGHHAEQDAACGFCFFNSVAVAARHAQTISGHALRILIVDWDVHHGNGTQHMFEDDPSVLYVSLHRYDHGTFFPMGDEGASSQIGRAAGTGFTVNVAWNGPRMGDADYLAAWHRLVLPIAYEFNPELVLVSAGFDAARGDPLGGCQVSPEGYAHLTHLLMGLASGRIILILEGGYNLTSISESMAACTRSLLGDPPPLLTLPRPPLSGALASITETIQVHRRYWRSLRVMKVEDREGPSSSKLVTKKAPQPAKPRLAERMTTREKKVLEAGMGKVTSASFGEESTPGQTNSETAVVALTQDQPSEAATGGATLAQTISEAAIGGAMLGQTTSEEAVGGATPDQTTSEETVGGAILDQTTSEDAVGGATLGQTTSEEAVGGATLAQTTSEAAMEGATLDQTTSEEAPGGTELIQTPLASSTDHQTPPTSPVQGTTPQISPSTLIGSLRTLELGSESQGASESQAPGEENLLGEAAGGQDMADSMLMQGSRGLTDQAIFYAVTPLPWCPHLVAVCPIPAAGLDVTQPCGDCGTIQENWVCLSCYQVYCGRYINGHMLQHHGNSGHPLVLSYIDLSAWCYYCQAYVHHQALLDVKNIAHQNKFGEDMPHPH

IC50 (HDACs; [2]) [nM]	IC50 (HDACs; [3]) [nM]	IC50 (HDAC6) [nM]	GI50 (MDAMB435; MDA-MB-435, Table 3) [µM]	GI50 (MDAMB435; MDA-MB-435, Table 4) [µM]	GI50 (HL-60; HL-60, Table 3) [µM]	GI50 (HL-60; HL-60, Table 4) [µM]	GI50 (Colo205; COLO 205, Table 3) [µM]	GI50 (Colo205; COLO 205, Table 4) [µM]	GI50 (HCT116; HCT-116, Table 3) [µM]	GI50 (HCT116; HCT-116, Table 4) [µM]	GI50 (SKOV-3; SK-OV-3, Table 3) [µM]	GI50 (SKOV-3; SK-OV-3, Table 4) [µM]	GI50 (BXPC-3; BXPC-3, Table 3) [µM]	GI50 (MDAMB231) [µM]	half-life [1] [h]	GI50 (BXPC-3; BXPC-3, Table 4) [µM]	SMILES
98	98000	627	3.33	3.33	3.52	3.52	5.68	5.68	0.78	0.78	4.57	4.57	15	3.49	1.4	–	CCN(CC)CCSc1ccc(/C=C/C(=O)NO)cc1NCCCc1ccccc1 [Example 1, 3-(4-(2-(diethylamino)ethylthio)-3-(3-phenylpropylamino)phenyl)-N-hydroxy-acrylamide]
> 100	86000	357	–	3.56	–	1.63	–	2	–	2.02	–	0.7	–	4.63	1.6	3.56	CCN(CC)CCSc1ccc(/C=C/C(=O)NO)cc1NC(C)=O [Example 4]
86	35000	313	3.56	–	1.63	–	2	–	2.02	–	0.7	–	95.4	1.92	2.2	–	CCN(CC)CCSc1ccc(/C=C/C(=O)NO)cc1[N+](=O)[O-] [Example 5, 3-(4-(2-(diethylamino)ethylthio)-3-nitrophenyl)-N-hydroxy-acrylamide]
95	–	800	16.6	–	15.2	–	10.6	–	13.9	–	15.6	–	16	–	–	–	CCN(CC)CCSc1ccc(/C=C/C(=O)NO)cc1NC [Example 8, 3-(4-(2-(diethylamino)ethylthio)-3-(methylamino)phenyl)-N-hydroxy-acrylamide]

Further lines, the molecule ahead of its results:

SMILES	IC50 (HDACs; [2]) [nM]	IC50 (HDACs; [3]) [nM]	IC50 (HDAC6) [nM]	GI50 (MDAMB435; MDA-MB-435, Table 3) [µM]	GI50 (MDAMB435; MDA-MB-435, Table 4) [µM]	GI50 (HL-60; HL-60, Table 3) [µM]	GI50 (HL-60; HL-60, Table 4) [µM]	GI50 (Colo205; COLO 205, Table 3) [µM]	GI50 (Colo205; COLO 205, Table 4) [µM]	GI50 (HCT116; HCT-116, Table 3) [µM]	GI50 (HCT116; HCT-116, Table 4) [µM]	GI50 (SKOV-3; SK-OV-3, Table 3) [µM]	GI50 (SKOV-3; SK-OV-3, Table 4) [µM]	GI50 (BXPC-3; BXPC-3, Table 3) [µM]	GI50 (MDAMB231) [µM]	half-life [1] [h]	GI50 (BXPC-3; BXPC-3, Table 4) [µM]
CCCNc1cc(/C=C/C(=O)NO)ccc1SCCN(CC)CC [Example 3, 3-(4-(2-(diethylamino)ethylthio)-3-(propylamino)phenyl)-N-hydroxy-acrylamide]	19	19000	653	2.6	2.6	1.98	1.98	2.95	2.95	3.65	3.65	2.58	2.58	14.5	2.98	1.8	–
CCN(CC)CCSc1ccc(/C=C/C(=O)NO)cc1NCc1ccccc1 [Example 6, 3-(3-(benzylamino)-4-(2-(di-ethylamino)ethylthio)phenyl)-N-hydroxy-acrylamide]	35	96000	275	1.95	–	1.32	–	2.28	–	0.78	–	2.81	–	4.33	4.39	2.5	–
C=CCNc1cc(/C=C/C(=O)NO)ccc1SCCN(CC)CC [Example 7, 3-(3-(allylamino)-4-(2-(di-ethylamino)ethylthio)phenyl)-N-hydroxy-acrylamide]	> 100	–	350	–	–	–	–	–	–	–	–	–	–	–	–	–	–
CCN(CC)CCSc1ccc(/C=C/C(=O)NO)cc1N [Example 9, 3-(3-amino-4-(2-(diethylamino)ethylthio)phenyl)-N-hydroxy-acrylamide]	> 100	–	295	–	–	–	–	–	–	–	–	–	–	–	–	–	–
CCCCCNC(=O)Nc1cc(/C=C/C(=O)NO)ccc1SCCN(CC)CC [Example 10, 3-(4-(2-(diethylamino)ethylthio)-3-(3-pentylureido)phenyl)-N-hydroxy-acrylamide]	55	–	200	10.2	–	15.7	–	17.6	–	18.2	–	16.9	–	19.9	–	–	–
C=CCCCNc1cc(/C=C/C(=O)NO)ccc1SCCN(CC)CC [Example 12, 3-(4-(2-(diethylamino)ethylthio)-3-(pent-4-enylamino)phenyl)-N-hydroxy-acrylamide]	> 100	–	310	–	–	–	–	–	–	–	–	–	–	–	–	–	–
CCN(CC)CCSc1ccc(/C=C/C(=O)NO)cc1NC(=O)C(Cl)Cl [Example 13, 3-(3-(2,2-dichloroacetamido)-4-(2-(diethylamino)ethylthio)phenyl)-N-hydroxy-acrylamide]	–	–	–	5.96	–	4.31	–	5.63	–	2.56	–	3.82	–	97.7	–	–	–
